Legend:
Phaedon cochleariae = Phaedon cochleariae - spray test (PHAECO); type: in vivo; settings: application rate 100 g/ha, Chinese cabbage leaf disks
Method: Phaedon cochleariae—Spray Test (PHAECO)
(§1) Solvent: 78.0 parts by weight of acetone • • 1.5 parts by weight of dimethylformamide
(§2) Emulsifier: 0.5 parts by weight of alkylaryl polyglycol ether
(§3) To produce a suitable active compound preparation, 1 part by weight of active compound is mixed with the stated amounts of solvent and emulsifier, and the concentrate is diluted with emulsifier-containing water to the desired concentration.
After the desired period of time, the efficacy in % is determined. 100% means that all the beetle larvae have been killed; 0% means that no beetle larvae have been killed.

[1] = log P by HPLC on reversed-phase column (C18), EEC directive 79/831 Annex V.A8; type: physicochemical; settings: HPLC reversed-phase C18, 43° C., data refer to the E isomer
Method: The log P values reported in the tables and Preparation Examples above were determined in accordance with EEC directive 79/831 Annex V.A8 by HPLC (High Performance Liquid Chromatography) using a reversed-phase column (C18). Temperature 43° C. The calibration is effected with unbranched alkan-2-ones (having 3 to 16 carbon atoms), for which the log P values are known.

Myzus persicae = Myzus persicae - spray test (MYZUPE); type: in vivo; settings: application rate 100 g/ha, Chinese cabbage leaf disks
Method: Myzus persicae—Spray Test (MYZUPE)
Solvent: 78 parts by weight of acetone • • 1.5 parts by weight of dimethylformamide
as §2, §3
Disks of Chinese cabbage leaves (Brassica pekinensis) infested by all stages of the green peach aphid (Myzus persicae) are sprayed with an active compound preparation of the desired concentration.
After the desired period of time, the efficacy in % is determined. 100% means that all the aphids have been killed; 0% means that none of the aphids have been killed.

Spodoptera frugiperda = Spodoptera frugiperda - spray test (SPODFR); type: in vivo; settings: application rate 100 g/ha, maize leaf disks
Method: Spodoptera frugiperda—Spray Test (SPODFR)
as §1, §2, §3
Leaf disks of maize (Zea mays) are sprayed with an active compound preparation of the desired concentration and, after drying, populated with caterpillars of the armyworm (Spodoptera frugiperda).
After the desired period of time, the efficacy in % is determined. 100% means that all the caterpillars have been killed; 0% means that no caterpillars have been killed.

SMILES: CON=Cc1cc(C)c(NC(=O)c2cc(C(F)(F)F)nn2-c2ncccc2Cl)c(C(=O)NNC(C)=O)c1 (mixture of isomers) [A-32]
- efficacy (beetle larvae killed) (Phaedon cochleariae): 100%
- log p ([1]; Table A): 2.38
- efficacy (aphids killed) (Myzus persicae): 90%
- efficacy (caterpillars killed) (Spodoptera frugiperda): 100%

SMILES: CON=Cc1cc(C)c(NC(=O)c2cc(OCC(F)(F)F)nn2-c2ncccc2Cl)c(C(=O)NNC(=O)OC)c1 (mixture of isomers) [A-33]
- efficacy (beetle larvae killed) (Phaedon cochleariae): 100%
- log p ([1]; Table A): 2.70
- efficacy (aphids killed) (Myzus persicae): 100%
- efficacy (caterpillars killed) (Spodoptera frugiperda): 100%

SMILES: CCOc1cc(C(=O)Nc2c(C)cc(C=NOC)cc2C(=O)NNC(=O)OC)n(-c2ncccc2Cl)n1 (mixture of isomers) [A-34]
- efficacy (beetle larvae killed) (Phaedon cochleariae): 100%
- log p ([1]; Table A): 2.26
- efficacy (aphids killed) (Myzus persicae): 90%
- efficacy (caterpillars killed) (Spodoptera frugiperda): 100%

SMILES: CON=Cc1cc(C)c(NC(=O)c2cc(OC(C)C)nn2-c2ncccc2Cl)c(C(=O)NNC(=O)OC)c1 (mixture of isomers) [A-35]
- efficacy (beetle larvae killed) (Phaedon cochleariae): 100%
- log p ([1]; Table A): 2.54
- efficacy (aphids killed) (Myzus persicae): 90%
- efficacy (caterpillars killed) (Spodoptera frugiperda): 100%

SMILES: CON=Cc1cc(C)c(NC(=O)c2cc(CF)nn2-c2ncccc2Cl)c(C(=O)NNC(=O)OC)c1 (mixture of isomers) [A-44]
- efficacy (beetle larvae killed) (Phaedon cochleariae): 100%
- log p ([1]; Table A): 2.02
- efficacy (aphids killed) (Myzus persicae): 90%
- efficacy (caterpillars killed) (Spodoptera frugiperda): 100%

SMILES: CON=Cc1cc(C)c(NC(=O)c2cc(Br)nn2-c2ncccc2Cl)c(C(=O)NN(C)C(=O)OC)c1 (mixture of isomers) [A-45]
- efficacy (beetle larvae killed) (Phaedon cochleariae): 100%
- log p ([1]; Table A): 2.50
- efficacy (aphids killed) (Myzus persicae): 100%
- efficacy (caterpillars killed) (Spodoptera frugiperda): 100%

SMILES: CON=Cc1cc(C)c(NC(=O)c2cc(C(F)F)nn2-c2ncccc2Cl)c(C(=O)NN(C)C(=O)OC)c1 (mixture of isomers) [A-47]
- efficacy (beetle larvae killed) (Phaedon cochleariae): 100%
- log p ([1]; Table A): 2.21
- efficacy (aphids killed) (Myzus persicae): 90%
- efficacy (caterpillars killed) (Spodoptera frugiperda): 100%

SMILES: CON=Cc1cc(C)c(NC(=O)c2cc(OC)nn2-c2ncccc2Cl)c(C(=O)NC2CC2)c1 (mixture of isomers) [C-30]
- efficacy (beetle larvae killed) (Phaedon cochleariae): 100%
- log p ([1]; Table C): 2.97
- efficacy (caterpillars killed) (Spodoptera frugiperda): 100%

SMILES: CON=Cc1cc(C)c(NC(=O)c2cc(OC)nn2-c2ncccc2Cl)c(C(=O)NC(C)C2CC2)c1 (mixture of isomers) [C-31]
- efficacy (beetle larvae killed) (Phaedon cochleariae): 100%
- log p ([1]; Table C): 3.66
- efficacy (caterpillars killed) (Spodoptera frugiperda): 100%

SMILES: CON=Cc1cc(C)c(NC(=O)c2cc(Br)nn2-c2ncccc2Cl)c(C(=O)N(C)NC(=O)OC)c1 [A-03]
- efficacy (beetle larvae killed) (Phaedon cochleariae): 100%
- log p ([1]; Table A): 2.74
- efficacy (caterpillars killed) (Spodoptera frugiperda): 100%

SMILES: CON=Cc1cc(C)c(NC(=O)c2cc(Br)nn2-c2ncccc2Cl)c(C(=O)NNC(=O)OC(C)C)c1 [A-06]
- efficacy (beetle larvae killed) (Phaedon cochleariae): 100%
- log p ([1]; Table A): 2.88
- efficacy (caterpillars killed) (Spodoptera frugiperda): 100%

SMILES: CON=Cc1cc(C)c(NC(=O)c2cc(C(F)(F)F)nn2-c2ncccc2Cl)c(C(=O)NNC(=O)OC(C)C)c1 [A-18]
- efficacy (beetle larvae killed) (Phaedon cochleariae): 100%
- log p ([1]; Table A): 3.17
- efficacy (caterpillars killed) (Spodoptera frugiperda): 100%

SMILES: CON=Cc1cc(C)c(NC(=O)c2cc(C(F)(F)F)nn2-c2ncccc2Cl)c(C(=O)N(C)NC(=O)OC(C)C)c1 [A-25]
- efficacy (beetle larvae killed) (Phaedon cochleariae): 100%
- log p ([1]; Table A): 3.57
- efficacy (caterpillars killed) (Spodoptera frugiperda): 100%

SMILES: CON=Cc1cc(C)c(NC(=O)c2cc(C(F)(F)F)nn2-c2ncccc2Cl)c(C(=O)N(C)NS(C)(=O)=O)c1 [A-31]
- efficacy (beetle larvae killed) (Phaedon cochleariae): 100%
- log p ([1]; Table A): 2.88
- efficacy (caterpillars killed) (Spodoptera frugiperda): 100%

SMILES: CON=Cc1cc(C)c(NC(=O)c2cc(OC(C)C)nn2-c2ncccc2Cl)c(C(=O)NC2CC2)c1 [C-06]
- efficacy (beetle larvae killed) (Phaedon cochleariae): 100%
- log p ([1]; Table C): 2.98
- efficacy (caterpillars killed) (Spodoptera frugiperda): 100%

SMILES: CNC(=O)c1cc(C=NOC)cc(C)c1NC(=O)c1cc(OC(C)C)nn1-c1ncccc1Cl [C-65]
- efficacy (beetle larvae killed) (Phaedon cochleariae): 100%
- log p ([1]; Table C): 2.75
- efficacy (caterpillars killed) (Spodoptera frugiperda): 100%

Source: patent US9609868B2, “Alkoximino-substituted anthranilic acid diamides as pesticides” (BAYER CROPSCIENCE AKTIENGESELLSCHAFT, priority 2013, dated 2017)
